Measured values from patent US7795261B2, “Substituted 1-piperidin-4-yl-4-pyrrolidin-3-yl-piperazine derivatives and their use as neurokinin antagonists” (Janssen Pharmaceutica NV, priority 2002, dated 2010).

How the values were obtained:
NK1 = NK1 (Homo sapiens, UniProt P25103); experiment: Signal transduction (ST), intracellular Ca++ (FLIPR), NK1 antagonistic activity; format: cell-based; conditions: read-out: pIC50 NK1 (converted)
Experimental: (§1) This test evaluates in vitro functional NK1 antagonistic activity. For the measurements of intracellular Ca^++ concentrations the cells were grown on 96-well (black wall/transparent bottom) plates from Costar for 2 days until they reached confluence. The cells were loaded with 2 μM Fluo3 in DMEM containing 0.1% BSA and 2.5 mM probenecid for 1 h at 37° C. They were washed 3× with a Krebs buffer (140 mM NaCl, 1 mM MgCl2×6H2O, 5 mM KCl, 10 mM glucose, 5 mM HEPES; 1.25 mM CaCl2; pH 7.4) containing 2.5 mM probenecid and 0.1% BSA (Ca^++-buffer). The cells were preincubated with a concentration range of antagonists for 20 min at RT and Ca^++-signals after addition of the agonists were measured in a Fluorescence Image Plate Reader (FLIPR from Molecular Devices, Crawley, England). The peak of the Ca^++-transient was considered as the relevant signal and the mean values of corresponding wells were analysed as described below.
The sigmoidal dose response curves were analysed by computerised curve-fitting, using the GraphPad Program. […] For antagonist responses the IC50-value was calculated using non-linear regression. […]

NK3 = target: T1, NK3 (Homo sapiens, UniProt P29371); experiment: Signal transduction (ST), intracellular Ca++ (FLIPR), NK3; format: cell-based; conditions: read-out: pIC50 NK3 (converted)
T1 sequence (P29371 1-465): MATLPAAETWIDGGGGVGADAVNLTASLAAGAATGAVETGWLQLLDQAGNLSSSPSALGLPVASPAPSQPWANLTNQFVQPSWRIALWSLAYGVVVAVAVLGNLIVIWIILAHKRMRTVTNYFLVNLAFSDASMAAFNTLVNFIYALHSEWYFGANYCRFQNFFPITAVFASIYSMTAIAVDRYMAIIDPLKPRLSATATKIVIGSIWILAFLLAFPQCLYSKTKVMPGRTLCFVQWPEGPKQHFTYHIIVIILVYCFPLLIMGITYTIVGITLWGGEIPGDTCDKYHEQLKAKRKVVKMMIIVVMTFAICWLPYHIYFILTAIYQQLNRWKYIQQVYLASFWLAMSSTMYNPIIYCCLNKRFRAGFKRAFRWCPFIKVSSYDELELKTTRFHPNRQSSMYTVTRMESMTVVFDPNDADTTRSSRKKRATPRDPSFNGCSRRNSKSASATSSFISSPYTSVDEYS
Experimental: [The procedure below names another target; the source lists this target under the same test.] as §1
The sigmoidal dose response curves were analysed by computerised curve-fitting, using the GraphPad Program. […] For antagonist responses the IC50-value was calculated using non-linear regression.
The last columns indicates—without being limited therefore—for which the compounds might be most suitable. Of course, since for some neurokinin receptors no data was determined, it is obvious that these compounds might be attributed to another suitable use.

NK1, sequence (P25103 whole entry): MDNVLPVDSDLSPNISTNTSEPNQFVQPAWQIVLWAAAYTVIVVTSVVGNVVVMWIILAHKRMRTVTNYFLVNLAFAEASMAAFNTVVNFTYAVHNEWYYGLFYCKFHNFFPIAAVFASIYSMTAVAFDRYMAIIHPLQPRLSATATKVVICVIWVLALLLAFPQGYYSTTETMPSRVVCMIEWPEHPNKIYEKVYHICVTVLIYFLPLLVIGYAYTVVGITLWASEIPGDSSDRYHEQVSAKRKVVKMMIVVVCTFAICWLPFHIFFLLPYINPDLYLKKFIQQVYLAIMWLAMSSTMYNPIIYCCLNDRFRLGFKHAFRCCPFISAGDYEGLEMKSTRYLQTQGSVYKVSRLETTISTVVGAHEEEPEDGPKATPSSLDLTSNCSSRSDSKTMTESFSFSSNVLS

SMILES | IC50 (NK1) | IC50 (NK3)
COc1ccc2[nH]c(C(=O)N3CCC(N4CCN([C@H]5CCN(C(=O)c6cc(C(F)(F)F)cc(C(F)(F)F)c6)[C@H](Cc6ccccc6)C5)CC4)C3)cc2c1 (stereo partly drawn) [Compound 55] | 316 nM | 7940 nM
Cn1c(C(=O)N2CCC(N3CCN([C@H]4CCN(C(=O)c5cc(C(F)(F)F)cc(C(F)(F)F)c5)[C@H](Cc5ccccc5)C4)CC3)C2)cc2ccccc21 (stereo partly drawn) [Compound 57] | 126 nM | 3160 nM
O=C(c1cnc2ccccc2n1)N1CCC(N2CCN([C@H]3CCN(C(=O)c4cc(C(F)(F)F)cc(C(F)(F)F)c4)[C@H](Cc4ccccc4)C3)CC2)C1 (stereo partly drawn) [Compound 60] | 31.6 nM | 2510 nM
O=C(C1CCc2cc(F)ccc2O1)N1CCC(N2CCN([C@H]3CCN(C(=O)c4cc(C(F)(F)F)cc(C(F)(F)F)c4)[C@H](Cc4ccccc4)C3)CC2)C1 (stereo partly drawn) [Compound 61] | 31.6 nM | 6310 nM
O=C(c1cc2ccccc2o1)N1CCC(N2CCN([C@H]3CCN(C(=O)c4cc(C(F)(F)F)cc(C(F)(F)F)c4)[C@H](Cc4ccccc4)C3)CC2)C1 (stereo partly drawn) [Compound 62] | 63.1 nM | 3980 nM
O=C(c1cc2ccccc2s1)N1CCC(N2CCN([C@H]3CCN(C(=O)c4cc(C(F)(F)F)cc(C(F)(F)F)c4)[C@H](Cc4ccccc4)C3)CC2)C1 (stereo partly drawn) [Compound 63] | 126 nM | 3160 nM
COc1cc(CC(=O)N2CCC(N3CCN([C@H]4CCN(C(=O)c5cc(C(F)(F)F)cc(C(F)(F)F)c5)[C@H](Cc5ccccc5)C4)CC3)C2)cc(OC)c1OC (stereo partly drawn) [Compound 65] | 12.6 nM | 3160 nM
O=C(c1ccno1)N1CCC(N2CCN([C@H]3CCN(C(=O)c4cc(C(F)(F)F)cc(C(F)(F)F)c4)[C@H](Cc4ccccc4)C3)CC2)C1 (stereo partly drawn) [Compound 68] | 31.6 nM | 1580 nM
CC1(C(=O)N2CCC(N3CCN([C@H]4CCN(C(=O)c5cc(C(F)(F)F)cc(C(F)(F)F)c5)[C@H](Cc5ccccc5)C4)CC3)C2)CC1 (stereo partly drawn) [Compound 73] | 10 nM | 1580 nM
O=C(C1CCCC1)N1CCC(N2CCN([C@H]3CCN(C(=O)c4cc(C(F)(F)F)cc(C(F)(F)F)c4)[C@H](Cc4ccccc4)C3)CC2)C1 (stereo partly drawn) [Compound 74] | 20 nM | 501 nM
O=C(C1CCCO1)N1CCC(N2CCN([C@H]3CCN(C(=O)c4cc(C(F)(F)F)cc(C(F)(F)F)c4)[C@H](Cc4ccccc4)C3)CC2)C1 (stereo partly drawn) [Compound 97] | 10 nM | 2510 nM
O=C(C1COc2ccccc2O1)N1CCC(N2CCN([C@H]3CCN(C(=O)c4cc(C(F)(F)F)cc(C(F)(F)F)c4)[C@H](Cc4ccccc4)C3)CC2)C1 (stereo partly drawn) [Compound 98] | 12.6 nM | 5010 nM
O=C(C1COC2CCCCC2O1)N1CCC(N2CCN([C@H]3CCN(C(=O)c4cc(C(F)(F)F)cc(C(F)(F)F)c4)[C@H](Cc4ccccc4)C3)CC2)C1 (stereo partly drawn) [Compound 99] | 7.94 nM | 3160 nM
O=C(C(NCCO)c1ccccc1)N1CCC(N2CCN([C@H]3CCN(C(=O)c4cc(C(F)(F)F)cc(C(F)(F)F)c4)[C@H](Cc4ccccc4)C3)CC2)C1 (stereo partly drawn) [Compound 106] | 31.6 nM | 3980 nM
O=C(C(c1ccccc1)N1CCCC1)N1CCC(N2CCN(C3CCN(C(=O)c4cc(C(F)(F)F)cc(C(F)(F)F)c4)C(Cc4ccccc4)C3)CC2)C1 (stereo not drawn) [Compound 108] | 31.6 nM | 2510 nM
COC(C(=O)N1CCC(N2CCN(C3CCN(C(=O)c4cc(C(F)(F)F)cc(C(F)(F)F)c4)C(Cc4ccccc4)C3)CC2)C1)c1ccccc1 (stereo not drawn) [Compound 109] | 12.6 nM | 7940 nM
Cc1nccn1C(C(=O)N1CCC(N2CCN(C3CCN(C(=O)c4cc(C(F)(F)F)cc(C(F)(F)F)c4)C(Cc4ccccc4)C3)CC2)C1)c1ccccc1 (stereo not drawn) [Compound 110] | 20 nM | 5010 nM
O=C(C(c1ccccc1)n1cc(Br)cn1)N1CCC(N2CCN([C@H]3CCN(C(=O)c4cc(C(F)(F)F)cc(C(F)(F)F)c4)[C@H](Cc4ccccc4)C3)CC2)C1 (stereo partly drawn) [Compound 111] | 79.4 nM | 6310 nM
CC(C)(C)OC(=O)N1CCC(N2CCN(C3CCN(C(=O)c4cc(C(F)(F)F)cc(C(F)(F)F)c4)C(Cc4ccccc4)C3)CC2)C1 (stereo not drawn) [Compound 130] | 39.8 nM | 3160 nM
CN(C)C(=O)N1CCC(N2CCN([C@H]3CCN(C(=O)c4cc(C(F)(F)F)cc(C(F)(F)F)c4)[C@H](Cc4ccccc4)C3)CC2)C1 (stereo partly drawn) [Compound 145] | 12.6 nM | 2000 nM

SMILES | IC50 (NK1) | IC50 (NK3)
Cc1nnsc1C(=O)N1CCC(N2CCN(C3CCN(C(=O)c4cc(C(F)(F)F)cc(C(F)(F)F)c4)C(Cc4ccc(Cl)c(Cl)c4)C3)CC2)C1 (stereo not drawn) [Compound 161] | 12.6 nM | 3160 nM
O=C(c1snnc1CO)N1CCC(N2CCN(C3CCN(C(=O)c4cc(C(F)(F)F)cc(C(F)(F)F)c4)C(Cc4ccccc4)C3)CC2)C1 (stereo not drawn) [Compound 166] | 6.31 nM | 1580 nM
O=C(c1cccnc1Cl)N1CCC(N2CCN([C@H]3CCN(C(=O)c4cc(C(F)(F)F)cc(C(F)(F)F)c4)[C@H](Cc4ccccc4)C3)CC2)C1 (stereo partly drawn) [Compound 168] | 7.94 nM | 501 nM
COCC(=O)N1CCC(N2CCN(C3CCN(C(=O)c4cc(C(F)(F)F)cc(C(F)(F)F)c4)C(Cc4ccccc4)C3)CC2)C1 (stereo not drawn) [Compound 177] | 63.1 nM | 2510 nM
O=C(C1CCC1)N1CCC(N2CCN([C@H]3CCN(C(=O)c4cc(C(F)(F)F)cc(C(F)(F)F)c4)[C@H](Cc4ccccc4)C3)CC2)C1 (stereo partly drawn) [Compound 179] | 6.31 nM | 1580 nM
CC(=O)N1CCCC1C(=O)N1CCC(N2CCN([C@H]3CCN(C(=O)c4cc(C(F)(F)F)cc(C(F)(F)F)c4)[C@H](Cc4ccccc4)C3)CC2)C1 (stereo partly drawn) [Compound 187] | 15.8 nM | 5010 nM
O=C(C(=O)N1CCC(N2CCN([C@H]3CCN(C(=O)c4cc(C(F)(F)F)cc(C(F)(F)F)c4)[C@H](Cc4ccccc4)C3)CC2)C1)c1cccs1 (stereo partly drawn) [Compound 188] | 25.1 nM | 2000 nM
CC(C)(C)OC(=O)N1CCC[C@@H]1C(=O)N1CCC(N2CCN([C@H]3CCN(C(=O)c4cc(C(F)(F)F)cc(C(F)(F)F)c4)[C@H](Cc4ccccc4)C3)CC2)C1 (stereo partly drawn) [Compound 189] | 7.94 nM | 251 nM
N#Cc1ccccc1C(=O)N1CCC(N2CCN(C3CCN(C(=O)c4cc(C(F)(F)F)cc(C(F)(F)F)c4)C(Cc4ccccc4)C3)CC2)C1 (stereo not drawn) [Compound 195] | 12.6 nM | 398 nM
CC(=O)N1CCC(N2CCN([C@H]3CCN(C(=O)c4cc(C(F)(F)F)cc(C(F)(F)F)c4)[C@H](Cc4ccccc4)C3)CC2)C1 (stereo partly drawn) [Compound 198] | 31.6 nM | 2510 nM
CC(C)C(=O)N1CCC(N2CCN([C@H]3CCN(C(=O)c4cc(C(F)(F)F)cc(C(F)(F)F)c4)[C@H](Cc4ccccc4)C3)CC2)C1 (stereo partly drawn) [Compound 199] | 10 nM | 1580 nM
CC(C)(C)CC(=O)N1CCC(N2CCN([C@H]3CCN(C(=O)c4cc(C(F)(F)F)cc(C(F)(F)F)c4)[C@H](Cc4ccccc4)C3)CC2)C1 (stereo partly drawn) [Compound 200] | 7.94 nM | 398 nM
CN(C)CC(=O)N1CCC(N2CCN([C@H]3CCN(C(=O)c4cc(C(F)(F)F)cc(C(F)(F)F)c4)[C@H](Cc4ccccc4)C3)CC2)C1 (stereo partly drawn) [Compound 202] | 39.8 nM | 6310 nM
O=C(c1cc(C(F)(F)F)cc(C(F)(F)F)c1)N1CCC(N2CCN(C3CCN(C(=O)C(F)(F)F)C3)CC2)CC1Cc1ccccc1 (stereo not drawn) [Compound 203] | 20 nM | 1000 nM
O=C(c1cc(C(F)(F)F)cc(C(F)(F)F)c1)N1CCC(N2CCN(C3CCN(c4noc5ccccc45)C3)CC2)CC1Cc1ccccc1 (stereo not drawn) [Compound 204] | 25.1 nM | 2510 nM
O=C(CNc1ccccc1CO)N1CCC(N2CCN(C3CCN(C(=O)c4cc(C(F)(F)F)cc(C(F)(F)F)c4)C(Cc4ccccc4)C3)CC2)C1 (stereo not drawn) [Compound 207] | 20 nM | 3980 nM
O=C(Cn1cnc2ccccc21)N1CCC(N2CCN([C@H]3CCN(C(=O)c4cc(C(F)(F)F)cc(C(F)(F)F)c4)[C@H](Cc4ccccc4)C3)CC2)C1 (stereo partly drawn) [Compound 208] | 15.8 nM | 2510 nM
CC(C)(C)OC(=O)N1CCC(C(=O)N2CCC(N3CCN([C@H]4CCN(C(=O)c5cc(C(F)(F)F)cc(C(F)(F)F)c5)[C@H](Cc5ccccc5)C4)CC3)C2)CC1 (stereo partly drawn) [Compound 210] | 15.8 nM | 7940 nM
O=C([C@H]1CCCN1)N1CCC(N2CCN([C@H]3CCN(C(=O)c4cc(C(F)(F)F)cc(C(F)(F)F)c4)[C@H](Cc4ccccc4)C3)CC2)C1 (stereo partly drawn) [Compound 213] | 20 nM | 1580 nM
